Measured values: the supplement of paper PMC8671470

test system: K-562; assay: cell viability (% survival relative to DMSO control, bortezomib = 0%); higher = less cytotoxic; details: 1000 nM; 72 h
Method in brief: (§1)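 Percent survival is reported as the mean of duplicate wells. Cells from 10 AML and 5 CML lines were plated in 384-well plates containing compounds at 1, 10, 100, 1000 or 10000 nM and kept for 72 h at 37 °C in 5% CO2. Readout used CellTiter-Glo luminescence, scaled so that vehicle equals 100% and a 10 µM positive control equals 0%.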

SMILES	cell viability
CC(=O)Nc1nc(C)c(-c2ccc(Cl)c(S(=O)(=O)NCCO)c2)s1 [PIK93]	82.3%
OC[C@H]1O[C@@H](n2cnc3c2N=CNC[C@H]3O)C[C@@H]1O [Pentostatin]	99.2%
CC(C)CC(=O)N[C@H](C(=O)N[C@H](C(=O)N[C@@H](CC(C)C)[C@@H](O)CC(=O)N[C@@H](C)C(=O)N[C@@H](CC(C)C)[C@@H](O)CC(=O)O)C(C)C)C(C)C [Pepstatin A]	101%
Cc1cccc(Nc2cc(Cl)nc(SCC(=O)O)n2)c1C [Pirinixic acid]	94.5%
C[C@]12C=CC(=O)C=C1CC[C@@H]1[C@@H]2[C@@H](O)C[C@@]2(C)[C@H]1CC[C@]2(O)C(=O)CO [Prednisolone]	99%
C=CCN(C)CCCCCCOc1ccc(C(=O)c2ccc(Br)cc2)c(F)c1.O=C(O)/C=C/C(=O)O [Ro 48-8071 fumarate]	82.2%

same assay, conditions: 10000 nM; 72 h

SMILES	cell viability
CN(Cc1cnc2nc(N)nc(N)c2n1)c1ccc(C(=O)N[C@@H](CCC(=O)O)C(=O)O)cc1 [Methotrexate]	21.7%
COC(=O)c1cc2c(C(F)(F)F)cc(-c3ccccc3)cc2n1O [NHI-2]	85.4%
CCCCCCCC/C=C\CCCCCCCC(=O)Nc1ccccc1 [Octadec-9-Enoic Acid Phenylamide]	93.4%
CC[C@H](C)[C@H](N)C(=O)N1CCSC1 [P32/98]	100%
CC(=O)Nc1nc(C)c(-c2ccc(Cl)c(S(=O)(=O)NCCO)c2)s1 [PIK93]	31.9%
OC[C@H]1O[C@@H](n2cnc3c2N=CNC[C@H]3O)C[C@@H]1O [Pentostatin]	107%
CC(C)CC(=O)N[C@H](C(=O)N[C@H](C(=O)N[C@@H](CC(C)C)[C@@H](O)CC(=O)N[C@@H](C)C(=O)N[C@@H](CC(C)C)[C@@H](O)CC(=O)O)C(C)C)C(C)C [Pepstatin A]	87.9%
Cc1cccc(Nc2cc(Cl)nc(SCC(=O)O)n2)c1C [Pirinixic acid]	90.7%
C[C@]12C=CC(=O)C=C1CC[C@@H]1[C@@H]2[C@@H](O)C[C@@]2(C)[C@H]1CC[C@]2(O)C(=O)CO [Prednisolone]	92.6%
C=CCN(C)CCCCCCOc1ccc(C(=O)c2ccc(Br)cc2)c(F)c1.O=C(O)/C=C/C(=O)O [Ro 48-8071 fumarate]	19.6%

test system: KCL-22; assay: as above; details: 1 nM; 72 h
Method in brief: as §1

SMILES	cell viability
CN(Cc1cnc2nc(N)nc(N)c2n1)c1ccc(C(=O)N[C@@H](CCC(=O)O)C(=O)O)cc1 [Methotrexate]	97.1%
COC(=O)c1cc2c(C(F)(F)F)cc(-c3ccccc3)cc2n1O [NHI-2]	91.9%
CCCCCCCC/C=C\CCCCCCCC(=O)Nc1ccccc1 [Octadec-9-Enoic Acid Phenylamide]	103%
CC[C@H](C)[C@H](N)C(=O)N1CCSC1 [P32/98]	96.8%
CC(=O)Nc1nc(C)c(-c2ccc(Cl)c(S(=O)(=O)NCCO)c2)s1 [PIK93]	132%
OC[C@H]1O[C@@H](n2cnc3c2N=CNC[C@H]3O)C[C@@H]1O [Pentostatin]	99.1%
CC(C)CC(=O)N[C@H](C(=O)N[C@H](C(=O)N[C@@H](CC(C)C)[C@@H](O)CC(=O)N[C@@H](C)C(=O)N[C@@H](CC(C)C)[C@@H](O)CC(=O)O)C(C)C)C(C)C [Pepstatin A]	97.4%
Cc1cccc(Nc2cc(Cl)nc(SCC(=O)O)n2)c1C [Pirinixic acid]	86.5%
C[C@]12C=CC(=O)C=C1CC[C@@H]1[C@@H]2[C@@H](O)C[C@@]2(C)[C@H]1CC[C@]2(O)C(=O)CO [Prednisolone]	94.2%
C=CCN(C)CCCCCCOc1ccc(C(=O)c2ccc(Br)cc2)c(F)c1.O=C(O)/C=C/C(=O)O [Ro 48-8071 fumarate]	99.6%

same assay, conditions: 10 nM; 72 h

SMILES	cell viability
CN(Cc1cnc2nc(N)nc(N)c2n1)c1ccc(C(=O)N[C@@H](CCC(=O)O)C(=O)O)cc1 [Methotrexate]	59.2%
COC(=O)c1cc2c(C(F)(F)F)cc(-c3ccccc3)cc2n1O [NHI-2]	88.8%
CCCCCCCC/C=C\CCCCCCCC(=O)Nc1ccccc1 [Octadec-9-Enoic Acid Phenylamide]	95.7%
CC[C@H](C)[C@H](N)C(=O)N1CCSC1 [P32/98]	97.3%
CC(=O)Nc1nc(C)c(-c2ccc(Cl)c(S(=O)(=O)NCCO)c2)s1 [PIK93]	99.4%
OC[C@H]1O[C@@H](n2cnc3c2N=CNC[C@H]3O)C[C@@H]1O [Pentostatin]	89.9%
CC(C)CC(=O)N[C@H](C(=O)N[C@H](C(=O)N[C@@H](CC(C)C)[C@@H](O)CC(=O)N[C@@H](C)C(=O)N[C@@H](CC(C)C)[C@@H](O)CC(=O)O)C(C)C)C(C)C [Pepstatin A]	74.5%
Cc1cccc(Nc2cc(Cl)nc(SCC(=O)O)n2)c1C [Pirinixic acid]	92.5%
C[C@]12C=CC(=O)C=C1CC[C@@H]1[C@@H]2[C@@H](O)C[C@@]2(C)[C@H]1CC[C@]2(O)C(=O)CO [Prednisolone]	111%
C=CCN(C)CCCCCCOc1ccc(C(=O)c2ccc(Br)cc2)c(F)c1.O=C(O)/C=C/C(=O)O [Ro 48-8071 fumarate]	98.6%

same assay, conditions: 100 nM; 72 h

SMILES	cell viability
CN(Cc1cnc2nc(N)nc(N)c2n1)c1ccc(C(=O)N[C@@H](CCC(=O)O)C(=O)O)cc1 [Methotrexate]	40.4%
COC(=O)c1cc2c(C(F)(F)F)cc(-c3ccccc3)cc2n1O [NHI-2]	104%
CCCCCCCC/C=C\CCCCCCCC(=O)Nc1ccccc1 [Octadec-9-Enoic Acid Phenylamide]	99.5%
CC[C@H](C)[C@H](N)C(=O)N1CCSC1 [P32/98]	107%
CC(=O)Nc1nc(C)c(-c2ccc(Cl)c(S(=O)(=O)NCCO)c2)s1 [PIK93]	100%
OC[C@H]1O[C@@H](n2cnc3c2N=CNC[C@H]3O)C[C@@H]1O [Pentostatin]	101%
CC(C)CC(=O)N[C@H](C(=O)N[C@H](C(=O)N[C@@H](CC(C)C)[C@@H](O)CC(=O)N[C@@H](C)C(=O)N[C@@H](CC(C)C)[C@@H](O)CC(=O)O)C(C)C)C(C)C [Pepstatin A]	101%
Cc1cccc(Nc2cc(Cl)nc(SCC(=O)O)n2)c1C [Pirinixic acid]	100%
C[C@]12C=CC(=O)C=C1CC[C@@H]1[C@@H]2[C@@H](O)C[C@@]2(C)[C@H]1CC[C@]2(O)C(=O)CO [Prednisolone]	82.5%
C=CCN(C)CCCCCCOc1ccc(C(=O)c2ccc(Br)cc2)c(F)c1.O=C(O)/C=C/C(=O)O [Ro 48-8071 fumarate]	96.3%

same assay, conditions: 1000 nM; 72 h

SMILES	cell viability
CN(Cc1cnc2nc(N)nc(N)c2n1)c1ccc(C(=O)N[C@@H](CCC(=O)O)C(=O)O)cc1 [Methotrexate]	21.1%
COC(=O)c1cc2c(C(F)(F)F)cc(-c3ccccc3)cc2n1O [NHI-2]	110%
CCCCCCCC/C=C\CCCCCCCC(=O)Nc1ccccc1 [Octadec-9-Enoic Acid Phenylamide]	103%
CC[C@H](C)[C@H](N)C(=O)N1CCSC1 [P32/98]	98.2%
CC(=O)Nc1nc(C)c(-c2ccc(Cl)c(S(=O)(=O)NCCO)c2)s1 [PIK93]	64.2%
OC[C@H]1O[C@@H](n2cnc3c2N=CNC[C@H]3O)C[C@@H]1O [Pentostatin]	94.3%
CC(C)CC(=O)N[C@H](C(=O)N[C@H](C(=O)N[C@@H](CC(C)C)[C@@H](O)CC(=O)N[C@@H](C)C(=O)N[C@@H](CC(C)C)[C@@H](O)CC(=O)O)C(C)C)C(C)C [Pepstatin A]	101%
Cc1cccc(Nc2cc(Cl)nc(SCC(=O)O)n2)c1C [Pirinixic acid]	106%
C[C@]12C=CC(=O)C=C1CC[C@@H]1[C@@H]2[C@@H](O)C[C@@]2(C)[C@H]1CC[C@]2(O)C(=O)CO [Prednisolone]	45.4%
C=CCN(C)CCCCCCOc1ccc(C(=O)c2ccc(Br)cc2)c(F)c1.O=C(O)/C=C/C(=O)O [Ro 48-8071 fumarate]	87.4%

same assay, conditions: 10000 nM; 72 h

SMILES	cell viability
CN(Cc1cnc2nc(N)nc(N)c2n1)c1ccc(C(=O)N[C@@H](CCC(=O)O)C(=O)O)cc1 [Methotrexate]	20.7%
COC(=O)c1cc2c(C(F)(F)F)cc(-c3ccccc3)cc2n1O [NHI-2]	92.7%
CCCCCCCC/C=C\CCCCCCCC(=O)Nc1ccccc1 [Octadec-9-Enoic Acid Phenylamide]	96.6%
